From patent publication US12459918B2, “Isoquinolinone derivatives serving as rock protein kinase inhibitors and use thereof” (GUANGZHOU OCUSUN OPHTHALMIC BIOTECHNOLOGY CO., LTD., priority 2019, dated 2025)

Test system: New Zealand rabbits with normal intraocular pressure
Experiment: Reduction of intraocular pressure by repeated eye-drop administration for 14 days, experiment operation 1
Type: in vivo
Details: for Change of intraocular pressure: negative control minus group
Description: Experimental example 4. Experiment on reduction of intraocular pressure and ocular toxicity of New Zealand rabbits with normal intraocular pressure by repeated eye-drop administration for 14 days
The intraocular pressure reduction action and the potential ocular toxicity of compound 63 were explored by 14 days of repeated eye-drop administration in rabbits with normal intraocular pressure.
Male New Zealand rabbits, aged 97-127 days, weighted 2.6-3.5 kg, purchased from PizhouDongfang Breeding Co. Ltd.
The male New Zealand rabbits were randomly divided into 7 groups, with 6 rabbits per group. Animals were randomly divided according to body weight Animals in 1-7 groups were eye-dropped with solvent/control sample/test sample in both eyes, the volume of the administration was all 50 μL/eye, once per day for 14 consecutive days, and the day of the administration was recorded as Day 1. On Day 1, intraocular pressure of the animals was measured before the administration and in 1, 2, 4, 6, 8 and 10 hours after the administration, respectively; on Days 2-14, intraocular pressure of the animals was measured in 1 hour after daily administration for the group administered with K-115, and intraocular pressure of the animal was measured in 4 hours after daily administration for the other groups.

[1] = 4 mg/mL once per day, Day 2, 1 hour after daily administration
[2] = 4 mg/mL once per day, Day 3, 1 hour after daily administration
[3] = 4 mg/mL once per day, Day 4, 1 hour after daily administration
[4] = 4 mg/mL once per day, Day 5, 1 hour after daily administration
[5] = 4 mg/mL once per day, Day 6, 1 hour after daily administration
[6] = 4 mg/mL once per day, Day 7, 1 hour after daily administration
[7] = 4 mg/mL once per day, Day 8, 1 hour after daily administration
[8] = 4 mg/mL once per day, Day 9, 1 hour after daily administration
[9] = 4 mg/mL once per day, Day 10, 1 hour after daily administration
[10] = 4 mg/mL once per day, Day 11, 1 hour after daily administration
[11] = 4 mg/mL once per day, Day 12, 1 hour after daily administration
[12] = 4 mg/mL once per day, Day 13, 1 hour after daily administration
[13] = 4 mg/mL once per day, Day 14, 1 hour after daily administration

C[C@H]1CNCCCN1S(=O)(=O)c1cccc2cncc(F)c12 [Compound K-115, reference compound]
Mean intraocular pressure of both eyes (4 mg/mL both eyes, Day 1, 1 hour after administration): 7.72 mmHg
Mean intraocular pressure of both eyes (4 mg/mL both eyes, Day 1, 2 hours after administration): 9.00 mmHg
Mean intraocular pressure of both eyes (4 mg/mL both eyes, Day 1, 4 hours after administration): 9.67 mmHg
Mean intraocular pressure of both eyes (4 mg/mL both eyes, Day 1, 6 hours after administration): 10.56 mmHg
Mean intraocular pressure of both eyes (4 mg/mL both eyes, Day 1, 8 hours after administration): 10.28 mmHg
Mean intraocular pressure of both eyes (4 mg/mL both eyes, Day 1, 10 hours after administration): 12.81 mmHg
Mean intraocular pressure of both eyes (4 mg/mL both eyes, Day 1, before administration): 10.83 mmHg
Mean intraocular pressure of both eyes [1]: 6.83 mmHg
Change of intraocular pressure [1]: 4.25 mmHg
Mean intraocular pressure of both eyes [2]: 6.81 mmHg
Change of intraocular pressure [2]: 3.58 mmHg
Mean intraocular pressure of both eyes [3]: 6.92 mmHg
Change of intraocular pressure [3]: 3.69 mmHg
Mean intraocular pressure of both eyes [4]: 6.67 mmHg
Change of intraocular pressure [4]: 4.3 mmHg
Mean intraocular pressure of both eyes [5]: 6.75 mmHg
Change of intraocular pressure [5]: 2.56 mmHg
Mean intraocular pressure of both eyes [6]: 7.39 mmHg
Change of intraocular pressure [6]: 2.67 mmHg
Mean intraocular pressure of both eyes [7]: 7.53 mmHg
Change of intraocular pressure [7]: 3.78 mmHg
Mean intraocular pressure of both eyes [8]: 7.78 mmHg
Change of intraocular pressure [8]: 1.66 mmHg
Mean intraocular pressure of both eyes [9]: 7.94 mmHg
Change of intraocular pressure [9]: 1.81 mmHg
Mean intraocular pressure of both eyes [10]: 7.94 mmHg
Change of intraocular pressure [10]: 1.75 mmHg
Mean intraocular pressure of both eyes [11]: 7.89 mmHg
Change of intraocular pressure [11]: 1.64 mmHg
Mean intraocular pressure of both eyes [12]: 8.25 mmHg
Change of intraocular pressure [12]: 3.14 mmHg
Mean intraocular pressure of both eyes [13]: 8.50 mmHg
Change of intraocular pressure [13]: 2.47 mmHg
Change of intraocular pressure (4 mg/mL, Day 1, 1 hour after administration): 2.59 mmHg
Change of intraocular pressure (4 mg/mL, Day 1, 2 hours after administration): 1.97 mmHg
Change of intraocular pressure (4 mg/mL, Day 1, 4 hours after administration): 1.64 mmHg
Change of intraocular pressure (4 mg/mL, Day 1, 6 hours after administration): 1.38 mmHg
Change of intraocular pressure (4 mg/mL, Day 1, 8 hours after administration): 2.69 mmHg
Change of intraocular pressure (4 mg/mL, Day 1, 10 hours after administration): 1.61 mmHg
Change of intraocular pressure (4 mg/mL, Day 1, before administration): −0.94 mmHg
